Consider 17 molecules from ChEMBL document CHEMBL3045146, “Synthesis and biological activity of novel phenyltriazolinone derivatives” (2010).

SMILES strings stand for the structures. The source made the active and inactive calls. No cut-off for these calls is given here.

For test [1], the system named is Echinochloa crus-galli. Nature of the test: Herbicidal activity against Echinochloa crus-galli (barnyard grass) assessed as growth inhibition at 150 g/ha. It is filed as functional, organism-based.
Test [2] concerns Brassica juncea. Nature of the test: Herbicidal activity against Brassica juncea assessed as growth inhibition at 150 g/ha. It counts as functional, organism-based.
The subject of test [3] is Poa annua. Nature of the test: Herbicidal activity against Poa annua assessed as growth inhibition at 150 g/ha. It counts as functional, organism-based.
Test [4] has as its system Eclipta prostrata. Kind of test: Herbicidal activity against Eclipta prostrata assessed as growth inhibition at 150 g/ha. It is filed as functional. Particulars: for inhibition of growth at 150 g/ha: read-out: GI.
Test [5] has as its system Amaranthus retroflexus. Kind of test: Herbicidal activity against Amaranthus retroflexus assessed as growth inhibition at 150 g/ha. It counts as functional, organism-based.
Test [6] deals with Digitaria sanguinalis. Nature of the test: Herbicidal activity against Digitaria sanguinalis (hairy crabgrass) assessed as growth inhibition at 150 g/ha. It counts as functional, organism-based.

In the case of `CO/N=C(/C(=O)OC)c1ccccc1Cn1c(C)nn(-c2cc(NS(C)(=O)=O)c(Cl)cc2Cl)c1=O`, the “growth inhibition (GI)” value in test [1], in test [2], in test [3], in test [4], in test [5] and in test [6] was “inactive” in each case.
Regarding `CCS(=O)(=O)Nc1cc(-n2nc(C)n(Cc3ccccc3N(OC)C(=O)OC)c2=O)c(F)cc1Cl`, the “growth inhibition (GI)” value in test [1], in test [2], in test [3], in test [5] and in test [6] was “inactive” in each case. For the same molecule, the inhibition of growth at 150 g/ha in test [4] turned out to be 70%.
For the molecule `CO/C=C(/C(=O)OC)c1ccccc1Cn1c(C)nn(-c2cc(NS(=O)(=O)c3ccccc3)c(Cl)cc2F)c1=O`, the “growth inhibition (GI)” value in test [1], in test [2], in test [3], in test [4], in test [5] and in test [6] was “inactive” in each case.
On to `CCS(=O)(=O)Nc1cc(-n2nc(C)n(Cc3ccccc3N(OC)C(=O)OC)c2=O)c(Cl)cc1Cl`, for which the “growth inhibition (GI)” value in test [1], in test [3] and in test [6] was “Active” each time. Also, the “growth inhibition (GI)” value in test [2], in test [4] and in test [5] was “inactive” throughout.
For `CO/N=C(/C(=O)OC)c1ccccc1Cn1c(C)nn(-c2cc(NS(=O)(=O)c3ccccc3)c(Cl)cc2Cl)c1=O`, the “growth inhibition (GI)” value in test [1], in test [2], in test [3], in test [5] and in test [6] was “inactive” each time. For the same molecule, in test [4], the inhibition of growth at 150 g/ha was 70%.
Turning to `CCS(=O)(=O)Nc1cc(-n2nc(C)n(Cc3ccccc3/C(=C\OC)C(=O)OC)c2=O)c(F)cc1Cl`, the “growth inhibition (GI)” value in test [1], in test [2], in test [3], in test [4], in test [5] and in test [6] was “inactive” throughout.
Consider `CO/C=C(/C(=O)OC)c1ccccc1Cn1c(C)nn(-c2cc(NS(C)(=O)=O)c(Cl)cc2Cl)c1=O`, for which the “growth inhibition (GI)” value in test [1], in test [2], in test [3], in test [4], in test [5] and in test [6] was “inactive” throughout.
Turning to `CO/N=C(/C(=O)OC)c1ccccc1Cn1c(C)nn(-c2cc(NS(=O)(=O)c3ccccc3)c(Cl)cc2F)c1=O`, the “growth inhibition (GI)” value in test [1], in test [2], in test [3], in test [4], in test [5] and in test [6] was “inactive” in each case.
Consider `CO/C=C(/C(=O)OC)c1ccccc1Cn1c(C)nn(-c2cc(NS(C)(=O)=O)c(Cl)cc2F)c1=O`, for which the “growth inhibition (GI)” value in test [1], in test [2], in test [3], in test [4], in test [5] and in test [6] was “inactive” each time.
Regarding `CO/C=C(/C(=O)OC)c1ccccc1Cn1c(C)nn(-c2cc(NS(=O)(=O)c3ccccc3)c(Cl)cc2Cl)c1=O`, the “growth inhibition (GI)” value in test [1], in test [2], in test [3], in test [4], in test [5] and in test [6] was “inactive” each time.
As for `CO/N=C(/C(=O)OC)c1ccccc1Cn1c(C)nn(-c2cc(NS(C)(=O)=O)c(Cl)cc2F)c1=O`, the “growth inhibition (GI)” value in test [1], in test [2], in test [3], in test [4], in test [5] and in test [6] was “inactive” throughout.
With `CCS(=O)(=O)Nc1cc(-n2nc(C)n(Cc3ccccc3/C(=N\OC)C(=O)OC)c2=O)c(Cl)cc1Cl`, the “growth inhibition (GI)” value in test [1], in test [2], in test [3], in test [4], in test [5] and in test [6] was “inactive” throughout.
Turning to `COC(=O)N(OC)c1ccccc1Cn1c(C)nn(-c2cc(NS(=O)(=O)c3ccccc3)c(Cl)cc2Cl)c1=O`, the “growth inhibition (GI)” value in test [1], in test [3] and in test [6] was “Active” each time. The “growth inhibition (GI)” value in test [2], in test [4] and in test [5] was “inactive” throughout.
As to `COC(=O)N(OC)c1ccccc1Cn1c(C)nn(-c2cc(NS(C)(=O)=O)c(Cl)cc2Cl)c1=O`, the “growth inhibition (GI)” value in test [1], in test [2], in test [3], in test [4], in test [5] and in test [6] was “inactive” each time.
As for `COC(=O)N(OC)c1ccccc1Cn1c(C)nn(-c2cc(NS(=O)(=O)c3ccccc3)c(Cl)cc2F)c1=O`, the “growth inhibition (GI)” value in test [1], in test [2], in test [3], in test [4], in test [5] and in test [6] was “inactive” throughout.
As for `CCS(=O)(=O)Nc1cc(-n2nc(C)n(Cc3ccccc3/C(=C\OC)C(=O)OC)c2=O)c(Cl)cc1Cl`, the “growth inhibition (GI)” value in test [1], in test [2], in test [3], in test [4], in test [5] and in test [6] was “inactive” each time.
As to `COC(=O)N(OC)c1ccccc1Cn1c(C)nn(-c2cc(NS(C)(=O)=O)c(Cl)cc2F)c1=O`, the “growth inhibition (GI)” value in test [1], in test [2], in test [3], in test [5] and in test [6] was “inactive” each time. The inhibition of growth at 150 g/ha in test [4] was 70%.
